Biological target: T1, human CAR LBD protein (Homo sapiens, UniProt Q14994)
T1 construct: made in house; host or cells: E. coli BL21 (DE3), pRSETA vector
T1 sequence (Q14994 103-348 isoform Q14994-2): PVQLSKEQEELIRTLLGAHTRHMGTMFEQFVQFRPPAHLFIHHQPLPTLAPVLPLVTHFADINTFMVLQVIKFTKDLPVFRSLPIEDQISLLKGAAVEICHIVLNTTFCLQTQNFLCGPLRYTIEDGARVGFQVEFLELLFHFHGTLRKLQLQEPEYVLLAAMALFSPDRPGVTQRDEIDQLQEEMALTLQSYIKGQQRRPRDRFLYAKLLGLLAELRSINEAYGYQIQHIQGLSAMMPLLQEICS
Assay: Fluorescence Resonance Energy Transfer (FRET) Ligand Sensing Assay: CAR LBD / SRC-1 coactivator peptide interaction
Type: biochemical
Protocol: Screening of synthetic compound libraries with the purified CAR LBD protein by a Fluorescence Resonance Energy Transfer (FRET) Ligand Sensing Assay (Parks et al., 1999) was conducted to identify molecules that alter the basal interaction between a coactivator peptide and the CAR LBD protein. Briefly, the purified human CAR LBD protein was biotinylated and labeled with streptavidin-conjugated fluorophore allophycocyanin. The labeled CAR LBD protein was incubated with a test compound and with a peptide that included the second LXXLL binding motif of the nuclear coactivator SRC-1 (GenBank Accession No. U59302; amino acids 676-700) that was labeled with europium chelate. Data were collected with a WALLAC VICTOR™ fluorescence reader (available from PerkinElmer Life Sciences Inc., Boston, Mass., United States of America) in a time resolved mode and the fluorescence ratio calculated.

EC50 (dose response curves with purified CAR LBD protein, reduction of basal CAR LBD/SRC-1 peptide FRET signal (inverse agonist)): 15 nM
SMILES: NC(=O)c1ccc2nc(NC(c3ccccc3)c3ccccc3)n(CCc3ccccc3)c2c1 [Compound 1, 2-(benzhydrylamino)-1-(2-phenylethyl)-1H-benzimidazole-6-carboxamide]
effect on basal fluorescent signal (CAR LBD/SRC-1 interaction) (screen of synthetic compound libraries, time resolved fluorescence ratio): inverse agonist molecule that reduces the basal fluorescent signal
